Experimental data from patent US20260159485A1, “ANDROGEN RECEPTOR DEGRADERS FOR THE TREATMENT OF CASTRATION-RESISTANT PROSTATE CANCER AND USE THEREOF” (AUTOTAC INC., priority 2021, published 2026).

Experiments:
[1] = tested on: androgen-responsive and unresponsive cell; assay: Increase of the autophagy flux in androgen-responsive and unresponsive cell; format: cell-based; settings: FIG. 1; for increase of autophagy at low concentration: 0.01 μM
Method: (§1) Hereinafter, experimental examples to show the effects of the disclosed compounds are described. Unless otherwise described, the following experiments were conducted with conventional materials and methos well known in the an for measuring a similar function.
Experimental Example 1. Increase of the Autophagy Flux in Androgen-Responsive and Unresponsive Cell by AR Inhibitors of the Present Invention

androgen receptor [2] = molecular target: T1, androgen receptor (Homo sapiens, UniProt P10275); assay: Degradation of androgen receptor through autophagy; format: cell-based; settings: FIG. 2a to 2c
T1 construct: endogenous in cells
T1 sequence (P10275 1-920): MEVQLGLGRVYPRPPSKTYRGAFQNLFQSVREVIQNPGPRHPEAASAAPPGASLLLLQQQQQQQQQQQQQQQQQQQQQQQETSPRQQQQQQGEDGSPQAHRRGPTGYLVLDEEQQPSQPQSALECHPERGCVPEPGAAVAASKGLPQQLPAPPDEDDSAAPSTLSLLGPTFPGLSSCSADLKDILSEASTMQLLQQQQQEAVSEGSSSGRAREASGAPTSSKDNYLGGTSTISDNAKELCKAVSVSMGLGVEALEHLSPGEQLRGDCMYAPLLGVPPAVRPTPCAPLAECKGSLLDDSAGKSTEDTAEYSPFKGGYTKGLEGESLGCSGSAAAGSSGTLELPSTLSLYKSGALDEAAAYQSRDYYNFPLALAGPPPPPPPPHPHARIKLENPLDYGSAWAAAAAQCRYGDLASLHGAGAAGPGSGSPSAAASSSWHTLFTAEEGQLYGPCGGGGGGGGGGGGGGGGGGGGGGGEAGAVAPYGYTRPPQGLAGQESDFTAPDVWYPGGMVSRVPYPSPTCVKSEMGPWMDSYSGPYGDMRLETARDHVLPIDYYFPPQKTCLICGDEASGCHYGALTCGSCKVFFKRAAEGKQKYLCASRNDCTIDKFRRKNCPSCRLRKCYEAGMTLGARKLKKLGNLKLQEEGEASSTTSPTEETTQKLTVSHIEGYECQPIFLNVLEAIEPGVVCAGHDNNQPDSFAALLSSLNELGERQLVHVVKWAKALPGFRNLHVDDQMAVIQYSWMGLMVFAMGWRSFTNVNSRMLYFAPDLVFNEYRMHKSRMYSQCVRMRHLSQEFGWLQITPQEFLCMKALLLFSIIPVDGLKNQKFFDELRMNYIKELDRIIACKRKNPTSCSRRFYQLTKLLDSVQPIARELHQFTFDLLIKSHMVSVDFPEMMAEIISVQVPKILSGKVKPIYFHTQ
Method: as §1
Experimental Example 2. Anticancer Efficacy Via Degradation of Androgen Receptor

androgen receptor [3] = molecular target: T1, androgen receptor; assay: Inactivation of AR: transcriptional activity of androgen receptor; format: cell-based; settings: by forming aggregation with p62 in the cytosol; FIG. 3
Method: as §1

AR target genes = assay: Down-regulation of AR signaling pathway: expression of AR target genes; format: cell-based; settings: FIG. 4
Method: as §1
3. Down-Regulation of AR Signaling Pathway

[4] = tested on: androgen-responsive prostate cancer cell; assay: Colony formation of prostate cancer cell; format: cell-based; settings: FIG. 6
Method: as §1
(§2) Experimental Example 3. Compound B Inhibits Proliferation of Androgen-Responsive Prostate Cancer Cell

[5] = tested on: androgen-responsive prostate cancer cell; assay: Cell proliferation / cell cycle of prostate cancer cell; format: cell-based; settings: blocking the cell cycle in G1 phase; FIG. 7
Method: as §1, §2

LNCaP xenograft tumors = assay: Growth of LNCaP xenograft tumors in mice; format: in vivo; settings: FIG. 8a to 8d
Description: Experimental Example 4. […] Inhibition of Tumor Growth

androgen receptor [6] = molecular target: T2, androgen receptor (Homo sapiens, UniProt P10275, T878A); assay: Degradation of androgen receptor in tumor of mice; format: in vivo; settings: LNCaP xenograft tumor; FIG. 8e
T2 construct: from tissue; host or cells: LNCaP xenograft tumour in mice
Description: 2. Degradation of Androgen Receptor

[7] = tested on: AR splice variant 7 (AR-V7); assay: Degradation of AR splice variant 7 in enzalutamide resistant cell; format: cell-based
Description: (§3) Experimental Example 5. Xtandi-AUTOTAC Degrades AR Splice Variant 7, Predictive Biomarker of Metastatic Castration-Resistant Prostate Cancer Degradation of AR Variant (FIG. 9a to FIG. 9d)

wild type AR = molecular target: T3, wild type AR (Homo sapiens, UniProt P10275); assay: Degradation of wild type AR in enzalutamide resistant cell; format: cell-based; settings: FIG. 9a
T3 construct: endogenous in cells
T3 sequence (P10275 1-920): T1 sequence (P10275 1-920)
Description: as §3

[8] = tested on: AR-V7-expressing 22Rv1 xenograft; assay: Tumor growth in AR-V7-expressing 22Rv1 xenograft model; format: in vivo; settings: SCID mice, intraperitoneally 5 times per week, 20 mg/kg; FIG. 10
Method: 22Rv1 cells (4×10^6 cells/animal) were injected subcutaneously into 10-week-old male SCID mice to generate xenograft. The mice bearing tumor were randomly divided into vehicle or AUTOTAC treatment groups (4 or 5 mice per group), Compound B was injected via intraperitoneally 5 times per week at a dose of 20 mg/kg body weight, whereas the vehicle group received an equal volume of PBS containing 5% DMSO and 10% solutol. (FIG. 10)

T2 sequence (P10275 whole entry T878A): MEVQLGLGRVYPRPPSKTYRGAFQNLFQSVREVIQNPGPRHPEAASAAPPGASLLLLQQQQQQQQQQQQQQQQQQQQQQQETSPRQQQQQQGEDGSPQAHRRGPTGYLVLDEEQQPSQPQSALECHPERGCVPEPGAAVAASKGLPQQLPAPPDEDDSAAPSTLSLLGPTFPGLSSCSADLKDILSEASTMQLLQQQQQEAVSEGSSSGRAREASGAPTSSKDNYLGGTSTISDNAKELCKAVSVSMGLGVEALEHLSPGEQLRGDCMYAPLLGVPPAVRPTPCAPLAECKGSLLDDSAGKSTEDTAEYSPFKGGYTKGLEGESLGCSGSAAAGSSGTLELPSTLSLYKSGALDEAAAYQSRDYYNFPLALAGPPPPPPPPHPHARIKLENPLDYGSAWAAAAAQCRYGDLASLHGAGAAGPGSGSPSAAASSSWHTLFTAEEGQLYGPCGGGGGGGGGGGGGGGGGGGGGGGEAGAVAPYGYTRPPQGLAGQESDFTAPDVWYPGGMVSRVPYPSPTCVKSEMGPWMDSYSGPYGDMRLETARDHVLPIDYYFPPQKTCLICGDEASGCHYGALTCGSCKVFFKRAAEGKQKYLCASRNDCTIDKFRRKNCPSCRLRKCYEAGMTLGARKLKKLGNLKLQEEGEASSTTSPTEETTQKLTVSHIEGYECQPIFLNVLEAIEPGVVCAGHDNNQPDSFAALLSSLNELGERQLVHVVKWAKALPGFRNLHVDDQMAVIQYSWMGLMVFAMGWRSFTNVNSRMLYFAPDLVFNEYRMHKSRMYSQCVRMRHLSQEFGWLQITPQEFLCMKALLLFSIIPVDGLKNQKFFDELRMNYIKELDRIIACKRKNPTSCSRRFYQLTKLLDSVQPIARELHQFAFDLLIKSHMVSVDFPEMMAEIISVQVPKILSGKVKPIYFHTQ
T2 sequence (Q13501 whole entry partner): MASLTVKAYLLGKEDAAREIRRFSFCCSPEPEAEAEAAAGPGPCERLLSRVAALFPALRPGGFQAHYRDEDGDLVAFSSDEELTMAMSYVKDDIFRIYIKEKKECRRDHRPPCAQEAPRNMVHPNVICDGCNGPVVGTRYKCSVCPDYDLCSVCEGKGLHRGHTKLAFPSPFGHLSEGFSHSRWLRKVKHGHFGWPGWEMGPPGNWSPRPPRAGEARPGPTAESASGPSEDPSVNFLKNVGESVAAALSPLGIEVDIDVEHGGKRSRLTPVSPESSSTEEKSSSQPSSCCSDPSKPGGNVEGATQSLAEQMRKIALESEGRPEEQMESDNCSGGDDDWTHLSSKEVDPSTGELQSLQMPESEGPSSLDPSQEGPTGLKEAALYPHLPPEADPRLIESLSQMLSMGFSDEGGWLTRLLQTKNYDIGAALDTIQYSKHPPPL

CC1(C)C(=O)N(c2ccc(C#N)c(C(F)(F)F)c2)C(=S)N1c1ccc(C(=O)NCCOCCOCCNC[C@@H](O)COc2ccc(OCc3ccc(F)cc3)c(OCc3ccc(F)cc3)c2)c(F)c1 [Compound A, (R)—N-(2-(2-(2-((3-(3,4-bis((4-fluorobenzyl)oxy)phenoxy)-2-hydroxypropyl)amino)ethoxy)ethoxy)ethyl)-4-(3-(4-cyano-3-(trifluoromethyl)phenyl)-5,5-dimethyl-4-oxo-2-thioxoimidazolidin-1-yl)-2-fluorobenzamide]
increase of autophagy at low concentration [1]: efficiently increase autophagy
degradation of androgen receptor through autophagy (androgen receptor [2]): efficiently degrade androgen receptor

CC1(C)C(=O)N(c2ccc(C#N)c(C(F)(F)F)c2)C(=S)N1c1ccc(C(=O)NCCOCCOCCOCCOCCNC[C@@H](O)COc2ccc(OCc3ccc(F)cc3)c(OCc3ccc(F)cc3)c2)c(F)c1 [Compound B, (R)—N-(18-(3,4-bis((4-fluorobenzyl)oxy)phenoxy)-17-hydroxy-3,6,9,12-tetraoxa-15-azaoctadecyl)-4-(3-(4-cyano-3-(trifluoromethyl)phenyl)-5,5-dimethyl-4-oxo-2-thioxoimidazolidin-1-yl)-2-fluorobenzamide]
increase of autophagy at low concentration [1]: efficiently increase autophagy
increase of autophagy at early time point ([1]; 1 h): efficiently increases autophagy
degradation of androgen receptor through autophagy (androgen receptor [2]): efficiently degrade androgen receptor
transcriptional activity of androgen receptor (androgen receptor [3]): inhibits transcriptional activity of androgen receptor
expression of AR target genes (AR target genes): down-regulates expression of AR target genes
colony formation of prostate cancer cell [4]: prevents colony formation
cell proliferation / cell cycle [5]: inhibits cell proliferation by blocking the cell cycle in G1 phase
tumor growth in Xenograft mouse model (LNCaP xenograft tumors): efficiently inhibits tumor growth
degradation of androgen receptor in tumor of mice (androgen receptor [6]): degrades androgen receptor
degradation of AR-V7 by sequestering with wild type AR ([7]; FIG. 9a to 9d): can degrade AR-V7 by sequestering with wild type AR
degradation of AR-V7 ([7]; enzalutamide resistant cell, FIG. 9a): degrades
degradation of wild type AR (wild type AR): degrades
tumor growth in AR-V7-expressing 22Rv1 xenograft model [8]: Inhibits Tumor Growth

CC1(C)C(=O)N(c2ccc(C#N)c(C(F)(F)F)c2)C(=S)N1c1ccc(C(=O)NCCOCCOCCOCCOCCOCCOCCNC[C@@H](O)COc2ccc(OCc3ccc(F)cc3)c(OCc3ccc(F)cc3)c2)c(F)c1 [Compound C, (R)-N-(24-(3,4-bis((4-fluorobenzyl)oxy)phenoxy)-23-hydroxy-3,6,9,12,15,18-hexaoxa-21-azatetracosyl)-4-(3-(4-cyano-3-(trifluoromethyl)phenyl)-5,5-dimethyl-4-oxo-2-thioxoimidazolidin-1-yl)-2-fluorobenzamide]
increase of autophagy at low concentration [1]: efficiently increase autophagy
degradation of androgen receptor through autophagy (androgen receptor [2]): efficiently degrade androgen receptor

O[C@H](CNCCOCCOCCOCCOCCN1CCN(c2nc(-n3cc(Br)nc3Br)cs2)CC1)COc1ccc(OCc2ccc(F)cc2)c(OCc2ccc(F)cc2)c1 [Compound D, (R)-18-(3,4-bis((4-fluorobenzyl)oxy)phenoxy)-1-(4-(4-(2,4-dibromo-1H-imidazol-1-yl)thiazol-2-yl)piperazin-1-yl)-3,6,9,12-tetraoxa-15-azaoctadecan-17-ol]
degradation of androgen receptor through autophagy (androgen receptor [2]): efficiently degrade androgen receptor

O=C(COCCOCCOCCOCCNC[C@@H](O)COc1ccc(OCc2ccc(F)cc2)c(OCc2ccc(F)cc2)c1)N1CCN(c2nc(-n3cc(Br)nc3Br)cs2)CC1 [Compound E, (R)-18-(3,4-bis((4-fluorobenzyl)oxy)phenoxy)-1-(4-(4-(2,4-dibromo-1H-imidazol-1-yl)thiazol-2-yl)piperazin-1-yl)-17-hydroxy-3,6,9,12-tetraoxa-15-azaoctadecan-1-one]
degradation of androgen receptor through autophagy (androgen receptor [2]): efficiently degrade androgen receptor

CC1(C)C(=O)N(c2ccc(C#N)c(C(F)(F)F)c2)C(=S)N1c1ccc(C(=O)NCCOCCOCCOCCOCCNC[C@@H](O)COc2cccc(OCc3ccc(F)cc3)c2)c(F)c1 [Compound F, (R)-4-(3-(4-cyano-3-(trifluoromethyl)phenyl)-5,5-dimethyl-4-oxo-2-thioxoimidazolidin-1-yl)-2-fluoro-N-(18-(3-((4-fluorobenzyl)oxy)phenoxy)-17-hydroxy-3,6,9,12-tetraoxa-15-azaoctadecyl)benzamide]
degradation of androgen receptor through autophagy (androgen receptor [2]): efficiently degrade androgen receptor

CC1(C)C(=O)N(c2ccc(C#N)c(C(F)(F)F)c2)C(=S)N1c1ccc(C(=O)NCCCCCCOCCCCCNC[C@@H](O)COc2cccc(OCc3ccc(F)cc3)c2)c(F)c1 [Compound G, (R)-4-(3-(4-cyano-3-(trifluoromethyl)phenyl)-5,5-dimethyl-4-oxo-2-thioxoimidazolidin-1-yl)-2-fluoro-N-(6-((5-((3-(3-((4-fluorobenzyl)oxy)phenoxy)-2-hydroxypropyl)amino)pentyl)oxy)hexyl)benzamide]
degradation of androgen receptor through autophagy (androgen receptor [2]): efficiently degrade androgen receptor

CC1(C)C(=O)N(c2ccc(C#N)c(C(F)(F)F)c2)C(=S)N1c1ccc(OCCCCCCCC(=O)NCCOCCOCCNCc2cccc(OCc3ccc(F)cc3)c2)cc1 [Compound H, 8-(4-(3-(4-cyano-3-(trifluoromethyl)phenyl)-5,5-dimethyl-4-oxo-2-thioxoimidazolidin-1-yl)phenoxy)-N-(2-(2-(2-((3-((4-fluorobenzyl)oxy)benzyl)amino)ethoxy)ethoxy)ethyl)octanamide]
degradation of androgen receptor through autophagy (androgen receptor [2]): efficiently degrade androgen receptor

CC1(C)C(=O)N(c2ccc(C#N)c(C(F)(F)F)c2)C(=S)N1c1ccc(OCCOCCOCCOCCOCCOCCNCc2cccc(OCc3ccc(F)cc3)c2)cc1 [Compound I, 4-(3-(4-((1-(3-((4-fluorobenzyl)oxy)phenyl)-5,8,11,14,17-pentaoxa-2-azanonadecan-19-yl)oxy)phenyl)-4,4-dimethyl-5-oxo-2-thioxoimidazolidin-1-yl)-2-(trifluoromethyl)benzonitrile]
degradation of androgen receptor through autophagy (androgen receptor [2]): efficiently degrade androgen receptor
